For data set [1], the target named is T1, hGnRH receptor (Homo sapiens, UniProt P30968).
T1 construct: expressed in transfected cells; host or cells: HEK 293 (hGnRH-R/293, from Dr. Stuart Sealfon)
T1 sequence (P30968 1-328): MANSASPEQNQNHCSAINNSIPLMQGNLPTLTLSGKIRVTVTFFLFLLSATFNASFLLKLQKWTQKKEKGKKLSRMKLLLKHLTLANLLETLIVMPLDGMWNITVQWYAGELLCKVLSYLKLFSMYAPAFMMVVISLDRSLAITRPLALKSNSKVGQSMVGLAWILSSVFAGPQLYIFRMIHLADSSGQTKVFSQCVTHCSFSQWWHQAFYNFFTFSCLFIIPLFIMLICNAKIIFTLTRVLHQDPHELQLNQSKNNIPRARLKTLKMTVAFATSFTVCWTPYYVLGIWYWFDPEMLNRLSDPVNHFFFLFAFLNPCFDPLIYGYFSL
The experiment in a line: Total inositol phosphates measurement, 293 cells containing the hGnRH receptor. The conditions noted are these: for GnRH functional: no species or readout annotated. Type of data set: cell-based. On the procedure:
To assess the activity of the compounds as agonists or antagonists, an assay measuring accumulation of total inositol phosphates was employed. 293 cells containing the hGnRH receptor were plated onto 24-well plates (approximately 200,000 cells/well) using DMEM media. […] The medium was aspirated and the cells rinsed with serum-free DMEM. The medium was aspirated and the cells were then treated with test compounds or vehicle for 30 minutes at 37° C. […] The media was replaced with ice-cold 10 mM formic acid, which stopped the reaction and also served to extract cellular lipids. Inositol phosphates were separated by ion-exchange chromatography on Dowex columns, which were washed with 2.5 mL of 10 mM myoinositol and 10 mM formic acid. The columns were then washed with 5 mL of 60 mM sodium formate and […], and total inositol phosphates were eluted with 5 mL 1M ammonium formate, 0.1 M formic acid. The column eluates were added to liquid scintillation vials containing 15 ml of scintillation cocktail and were counted by liquid scintillation counting.
(§1) This cell line was provided by Dr. Stuart Sealfon, Mount Sinai Medical School New York, N.Y. These cells were grown in DMEM supplemented with 0.2 g/L G418 100 U/ml penicillin/streptomycin and 10% FBS. Both GGH3 and hGnRH-R/293 cells were utilized for both for both total inositol phosphate measurement and for microphysiometry assessment of compound efficacy.

Data set [2] has as its target Glucagon (Homo sapiens, UniProt P47871). The data set can be described thus: Selectivity: Glucagon.
For data set [3], the target named is D2 Dopamine (Homo sapiens, UniProt P14416). The experiment in a line: Selectivity: D2 Dopamine.
Sequence of D2 Dopamine (P14416 whole entry): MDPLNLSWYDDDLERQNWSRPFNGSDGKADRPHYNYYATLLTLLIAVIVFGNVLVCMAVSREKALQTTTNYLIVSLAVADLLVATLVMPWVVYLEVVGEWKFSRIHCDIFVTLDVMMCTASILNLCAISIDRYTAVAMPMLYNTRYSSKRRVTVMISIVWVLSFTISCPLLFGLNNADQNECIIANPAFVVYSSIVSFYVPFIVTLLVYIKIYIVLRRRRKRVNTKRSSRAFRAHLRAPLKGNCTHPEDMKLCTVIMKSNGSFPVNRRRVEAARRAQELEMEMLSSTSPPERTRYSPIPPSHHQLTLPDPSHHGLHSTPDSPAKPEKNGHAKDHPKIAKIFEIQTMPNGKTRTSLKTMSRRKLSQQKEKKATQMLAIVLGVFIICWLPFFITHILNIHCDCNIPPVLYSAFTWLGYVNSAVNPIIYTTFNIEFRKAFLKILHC
Data set [4] concerns the target T2, rat GnRH receptor (Rattus norvegicus, UniProt P30969).
T2 sequence (P30969 1-327): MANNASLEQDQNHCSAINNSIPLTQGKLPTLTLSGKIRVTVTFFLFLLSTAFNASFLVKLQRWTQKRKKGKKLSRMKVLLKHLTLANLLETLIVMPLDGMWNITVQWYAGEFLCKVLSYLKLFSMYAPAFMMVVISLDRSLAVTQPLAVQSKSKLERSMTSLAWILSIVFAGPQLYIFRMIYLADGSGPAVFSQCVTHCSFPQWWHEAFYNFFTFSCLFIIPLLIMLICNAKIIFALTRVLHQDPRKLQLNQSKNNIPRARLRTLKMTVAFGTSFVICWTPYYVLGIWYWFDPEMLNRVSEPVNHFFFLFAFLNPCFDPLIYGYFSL
The experiment in a line: Microphysiometry, extracellular acidification rate, GGH3 cells. It counts as cell-based. On the procedure: These cells have been extensively characterized previously (Kaiser et al., 1997). These cells were grown in low glucose Dulbecco's modified Eagle's medium (DMEM) containing: 100U/mL penicillin/streptomycin, 0.6 g/L G418 and 10% beat-inactivated fetal bovine serum
as §1
The Cytosensor®Microphysiometer (Molecular Devices, Sunnyvale, Calif.) is a real-time, noninvasive, nonradioactive semiconductor-based system for monitoring the cellular responses to various stimuli. It is based on a pH-sensitive silicon sensor, the light-addressable potentiometric sensor which forms part of a microvolume flow chamber in which cultured cells are immobilized (Pitchford et al., 1995; Parce et al., 1989; Owicki, et al. 1994).
GGH3 cells were seeded in low-buffered minimal essential media (MEM, Sigma) containing 25 mM NaCl and 0.1% BSA at a density of 500,000 cells/capsule onto the polycarbonate membrane (3 μm porosity) of cell capsule cups (Molecular Devices, Sunnyvale, Calif.). Capsule cups were transferred to sensor chambers where cells were held in close apposition to a silicon sensor within a sensor chamber, which measures small changes in pH in the microvolume of the sensor chamber. Low-buffered medium was pumped continuously across the cells at a rate of approximately 100 μl/min from one of two fluid reservoirs. A selection valve determined which reservoir from which fluid was perifused onto the cells.
The Cytosensor®Microphysiometer generates a voltage signal, which is a linear function of pH, every second. In order to measure acidification rates, flow to the sensor chamber containing the cells was periodically interrupted, allowing for excreted acidic metabolites to build up in the extracellular fluid of the cells. In these experiments, cells were maintained at 37° C. on a two minute flow cycle with cells being perfused with media for 80 seconds followed by 40 seconds in which the flow of media was stopped. During this 40 second interval, acidification rates were measured for a 30 sec interval. In this fashion, a single acidification rate was calculated every two min. The Cytosensor®Microphysiometer device contains eight such sensor units, allowing for eight simultaneous experiments to be performed. Each unit was individually programmed utilizing a computer linked to the system.
GGH3 cells were initially equilibrated in the low-buffered MEM media for a period of 30-60 min in which basal acidification rates (measured as μV/sec), in the absence of any stimuli, were monitored. When the basal rate of acidification changed by less than ten percent over a period of twenty minutes, experiments were initiated. Time course experiments were performed to determine the optimal time for agonist exposure prior to acidification rate measurement and the duration of exposure needed to obtain peak acidification responses to various agonists. From these time course experiments, it was determined that cells should be exposed to GnRH peptide agonists at least one minute prior to collection of acidification rate data. Peak acidification rates usually occurred in the first two-minute exposure cycle. In order to capture the peak response to GnRH, cells were exposed to the agonist for a total of four minutes. […] All compounds were tested in a final concentration of 1% DMSO in low-buffered MEM media described above.

The nature of data set [5]: Metabolism rate, pmol/min/mg at 1 μM, rat male. Type of data set: in vitro ADME. The following applies: 1 μM compound.
Setting [6] is: rat, readout (PI or pH) not stated.

pIC50, pKi: −log10 of the molar value. Read-outs that look alike come from different tables or passages of the source. Where a SMILES comes first, the peptide text is derived from it. [ ]: non-standard residue; d: D form. The star is where a group is joined. dPhe(4-Cl) = N[C@H](Cc1ccc(Cl)cc1)C(=O)O; d2Nal = N[C@H](Cc1ccc2ccccc2c1)C(=O)O; Lys(iPr) = CC(C)NCCCC[C@H](N)C(=O)O; d3Pal = N[C@H](Cc1cccnc1)C(=O)O; Nicotinoyl = O=C(c1cccnc1)*

Sequence of Glucagon (P47871 26-477): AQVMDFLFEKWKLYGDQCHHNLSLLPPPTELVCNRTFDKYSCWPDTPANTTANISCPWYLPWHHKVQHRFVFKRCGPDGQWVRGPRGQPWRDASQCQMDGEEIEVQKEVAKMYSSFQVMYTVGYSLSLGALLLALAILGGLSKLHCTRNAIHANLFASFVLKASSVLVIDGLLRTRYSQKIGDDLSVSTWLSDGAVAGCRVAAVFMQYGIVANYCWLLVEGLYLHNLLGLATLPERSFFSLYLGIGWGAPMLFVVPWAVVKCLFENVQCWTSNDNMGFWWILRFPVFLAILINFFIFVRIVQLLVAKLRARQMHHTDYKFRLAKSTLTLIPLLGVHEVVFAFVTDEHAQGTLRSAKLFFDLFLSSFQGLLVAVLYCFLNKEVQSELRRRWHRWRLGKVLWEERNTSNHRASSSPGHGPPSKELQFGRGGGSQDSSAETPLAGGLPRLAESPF

For `CC(=O)N[C@H](Cc1ccc2ccccc2c1)C(=O)N[C@H](Cc1ccc(Cl)cc1)C(=O)N[C@H](Cc1cccnc1)C(=O)N[C@@H](CO)C(=O)N[C@@H](CCCCNC(=O)c1cccnc1)C(=O)N[C@H](CCCCNC(=O)c1cccnc1)C(=O)N[C@@H](CC(C)C)C(=O)N[C@@H](CCCCNC(C)C)C(=O)N1CCC[C@H]1C(=O)N[C@H](C)C(N)=O` [Antide, reference compound] (Ac-[d2Nal][dPhe(4-Cl)][d3Pal]SK(Nicotinoyl)[dK](Nicotinoyl)L[Lys(iPr)]P[dA]-NH2), the “stimulation of total [3H]inositol phosphates by compound alone” value in data set [1] (compound alone, no GnRH) is listed as “Neither compound alone stimulated an increase”. Further, the “inhibition of GnRH-stimulated total inositol phosphate accumulation” value in data set [1] (half-maximal concentration of GnRH (1 nM)) is “able to inhibit the stimulation”.
For `Cc1cc2c(cc1Cc1ccc(C(=O)NC[C@H]3CC[C@H](CNC(=N)N)CC3)o1)C(C)(C)CCC2(C)C` [Compound 10], the Kb in data set [1] amounted to 95 nM. In data set [2], the pIC50 (in general, the negative decadic logarithm of the IC50, by convention in mol/L) is 5.18.
For `Cc1cc2c(cc1Cc1ccc(C(=O)NCC3CCCC(CNc4nccc(NCC5CCCO5)n4)C3)o1)C(C)(C)CCC2(C)C` (stereo not shown) [Compound 11], in data set [2], the pIC50 is 5.49. For the same compound, the pKi (usually the negative decadic logarithm of the Ki, by convention in mol/L) in data set [3] was 6.82.
`Cc1cc2c(cc1Cc1ccc(C(=O)NC[C@H]3CC[C@H](C(=O)O)CC3)o1)C(C)(C)CCC2(C)C` [Compound 12] gave a Kb in data set [1] of 170 nM. In data set [2], this compound gave a pIC50 of 5.00. This compound showed a pKi in data set [3] of 5.85.
For `Cc1cnc(CNC(=O)c2ccc(Cc3cc4c(cc3C)C(C)(C)CCC4(C)C)o2)cn1` [Compound 13], in that order: 85 nM, 5.10 and below 5.49.
As to `COc1cccc(OC)c1NC(=O)c1ccc(Cc2cc3c(cc2C)C(C)(C)CCC3(C)C)o1` [Compound 20], in data set [2], the pIC50 is 5.17 and the pKi was 5.17. In data set [4] (setting [6]), this compound registered a Kb of 9 nM. The same compound had a pKi in data set [3] below 5.49.
Consider `Cc1cc2c(cc1Cc1ccc(C(=O)NCc3nc4ccccc4[nH]3)o1)C(C)(C)CCC2(C)C` [Compound 48], for which the GnRH functional entry in data set [1] is given as “Antag- onist”. Moreover, the pIC50 in data set [2] is 5.20. The compound further gave a pKi in data set [3] below 5.49. For the same compound, in data set [5], the “Rat male pmol/min/mg 1 μM” value amounted to 2869 pmol/min/mg.
As for `Cc1cc2c(cc1Cc1ccc(C(=O)NCc3cccc(CNc4nccc(NCC5CCCO5)n4)c3)o1)C(C)(C)CCC2(C)C` (stereo not shown) [Compound 70], in data set [4] (setting [6]), the “GnRH functional (rat)” value is “Antag- onist (rat)” and the Kb was 8 nM. In addition, the “Rat male pmol/min/mg 1 μM” value in data set [5] stood at 2393 pmol/min/mg.
As to `COc1cc(OC)c(NC(=O)c2ccc(Cc3cc4c(cc3C)C(C)(C)CCC4(C)C)o2)c(OC)c1` [Compound 134], the Kb in data set [1] (human, PI (inositol phosphates)) was 13 nM; in data set [4] (rat, pH (microphysiometry)) it was 13 nM. For the same compound, the GnRH functional result in data set [1] is listed as “Antag- onist”. For the same compound, in data set [3], the pKi is 5.62. For the same compound, in data set [5], the “Rat male pmol/min/mg 1 μM” value is 3909 pmol/min/mg.
On to `Cc1cc2c(cc1Cc1ccc(C(=O)NCc3cccc(CNc4ccnc(NC[C@@H]5CCCO5)n4)c3)o1)C(C)(C)CCC2(C)C` [Compound 136], for which the GnRH functional result in data set [1] is recorded as “Antag- onist”. Besides, the “effect on GnRH dose-response curves, extracellular acidification rate” value in data set [4] (GGH3 cells, one experiment) was “rightward shift in the dose-response curves to GnRH without decreasing the maximum response to GnRH”. Besides, in data set [4] (rat, pH (microphysiometry)), the Kb was 8 nM. Moreover, in data set [3], the pKi is 6.80. In addition, the “Rat male pmol/min/mg 1 μM” value in data set [5] came out at 4437 pmol/min/mg.
For `COc1cc(OC)c(NC(=O)c2ccc(Cc3cc4c(cc3OC)C(C)(C)CCC4(C)C)o2)c(OC)c1` [Compound 169], the GnRH functional entry in data set [1] was “Antag- onist”. The Kb in data set [4] (setting [6]) is 17 nM. The same compound had a pKi in data set [3] of 5.47. The “Rat male pmol/min/mg 1 μM” value in data set [5] stood at 3320 pmol/min/mg.
With `COc1cc(OC)c(NC(=O)c2ccc(Cc3cc4c(cc3C)C(C)(C)CCC4(C)C)o2)c(OC)c1C#N` [Compound 177], the GnRH functional entry in data set [1] is “Antag- onist”. The compound also came in with a Kb in data set [4] (setting [6]) of 9 nM. For the same compound, in data set [5], the “Rat male pmol/min/mg 1 μM” value stood at 2930 pmol/min/mg.
In the same order, the values of `COc1cc(OC)c(NC(=O)c2ccc(Cc3cc4c(cc3C)CCCC4(C)C)o2)c(OC)c1` [Compound 183] are “Antag- onist”, 11 nM and 1246 pmol/min/mg.
For the compound `COc1cc(OC)c(NC(=O)c2ccc(Cc3cc(C(C)(C)C)ccc3C)o2)c(OC)c1` [Compound 200], in data set [1], the GnRH functional entry was “Antag- onist”. The compound further registered a Kb in data set [4] (setting [6]) of 0.9 nM. In addition, the “Rat male pmol/min/mg 1 μM” value in data set [5] came out at 595 pmol/min/mg.

These data come from patent US7101878B1 (Agouron Pharmaceuticals, Inc., priority 1998, dated 2006).
